According to ChEMBL document CHEMBL5465560, “Selectivity Literature for EUbOPEN Chemogenomic Library” (2024):

How the values were obtained:
Details in all cases: at 10 µM
[1] = biological target: T1, Serine/threonine-protein kinase TAO2 (Homo sapiens) (UniProt Q9UL54); assay: Selectivity interaction (KinomeScan (DiscoverX)) EUB0000666a TAOK2
T1 sequence (whole entry): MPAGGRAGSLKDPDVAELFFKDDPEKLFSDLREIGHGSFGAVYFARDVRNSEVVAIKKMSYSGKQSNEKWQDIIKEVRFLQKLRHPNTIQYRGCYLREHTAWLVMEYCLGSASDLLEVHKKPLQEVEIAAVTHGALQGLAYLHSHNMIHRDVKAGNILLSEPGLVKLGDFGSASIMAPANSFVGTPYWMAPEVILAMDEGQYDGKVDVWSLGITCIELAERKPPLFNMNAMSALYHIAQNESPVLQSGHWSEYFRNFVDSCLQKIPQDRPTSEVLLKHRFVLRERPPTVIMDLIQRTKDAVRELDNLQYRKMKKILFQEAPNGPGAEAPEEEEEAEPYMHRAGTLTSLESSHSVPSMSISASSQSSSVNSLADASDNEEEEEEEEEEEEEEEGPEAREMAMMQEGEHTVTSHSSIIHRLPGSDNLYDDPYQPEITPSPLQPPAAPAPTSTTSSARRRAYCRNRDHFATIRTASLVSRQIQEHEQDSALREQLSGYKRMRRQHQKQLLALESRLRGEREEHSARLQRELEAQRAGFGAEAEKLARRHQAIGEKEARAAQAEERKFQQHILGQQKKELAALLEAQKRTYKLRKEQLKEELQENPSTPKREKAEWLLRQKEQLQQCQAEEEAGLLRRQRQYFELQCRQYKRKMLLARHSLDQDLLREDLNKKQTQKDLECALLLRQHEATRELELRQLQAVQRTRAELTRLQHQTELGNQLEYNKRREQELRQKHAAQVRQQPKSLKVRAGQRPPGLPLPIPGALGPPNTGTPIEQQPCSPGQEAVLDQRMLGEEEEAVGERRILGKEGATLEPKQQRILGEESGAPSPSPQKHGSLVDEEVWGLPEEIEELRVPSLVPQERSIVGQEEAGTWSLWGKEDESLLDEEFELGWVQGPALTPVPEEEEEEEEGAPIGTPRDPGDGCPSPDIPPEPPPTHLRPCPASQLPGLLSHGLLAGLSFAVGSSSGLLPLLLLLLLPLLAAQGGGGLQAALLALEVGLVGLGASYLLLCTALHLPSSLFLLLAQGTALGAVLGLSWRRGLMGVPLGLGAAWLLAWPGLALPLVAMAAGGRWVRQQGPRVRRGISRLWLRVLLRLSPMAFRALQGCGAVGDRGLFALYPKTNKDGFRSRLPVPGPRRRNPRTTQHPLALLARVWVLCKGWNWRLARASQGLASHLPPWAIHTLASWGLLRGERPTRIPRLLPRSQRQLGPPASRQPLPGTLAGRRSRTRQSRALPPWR

[2] = biological target: T2, Inhibitor of nuclear factor kappa-B kinase subunit epsilon (Homo sapiens) (UniProt Q14164); assay: Selectivity interaction (KinomeScan (DiscoverX)) EUB0000595a IKBKE
T2 sequence (whole entry): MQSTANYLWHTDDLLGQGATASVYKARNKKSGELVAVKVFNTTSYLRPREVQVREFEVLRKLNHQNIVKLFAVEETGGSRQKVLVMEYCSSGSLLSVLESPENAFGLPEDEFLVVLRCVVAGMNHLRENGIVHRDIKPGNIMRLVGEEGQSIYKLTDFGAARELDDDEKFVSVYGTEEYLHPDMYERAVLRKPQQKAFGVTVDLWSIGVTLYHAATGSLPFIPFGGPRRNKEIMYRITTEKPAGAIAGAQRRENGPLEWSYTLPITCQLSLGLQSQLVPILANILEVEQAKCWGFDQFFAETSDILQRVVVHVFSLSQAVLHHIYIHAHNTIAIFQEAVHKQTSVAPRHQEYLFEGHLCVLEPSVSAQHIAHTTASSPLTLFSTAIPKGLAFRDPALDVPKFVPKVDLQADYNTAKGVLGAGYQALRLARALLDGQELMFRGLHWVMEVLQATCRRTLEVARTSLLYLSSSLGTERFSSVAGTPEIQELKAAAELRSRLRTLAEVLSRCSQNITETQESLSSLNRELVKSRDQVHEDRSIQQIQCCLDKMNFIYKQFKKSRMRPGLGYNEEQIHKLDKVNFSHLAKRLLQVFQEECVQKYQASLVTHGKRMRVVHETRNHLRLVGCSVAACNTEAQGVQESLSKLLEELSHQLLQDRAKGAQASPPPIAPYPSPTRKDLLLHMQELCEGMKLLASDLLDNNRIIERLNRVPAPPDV

[3] = test system: T3, Receptor-type tyrosine-protein kinase FLT3 (Homo sapiens), P36888 [D835Y]
T3 sequence (whole entry): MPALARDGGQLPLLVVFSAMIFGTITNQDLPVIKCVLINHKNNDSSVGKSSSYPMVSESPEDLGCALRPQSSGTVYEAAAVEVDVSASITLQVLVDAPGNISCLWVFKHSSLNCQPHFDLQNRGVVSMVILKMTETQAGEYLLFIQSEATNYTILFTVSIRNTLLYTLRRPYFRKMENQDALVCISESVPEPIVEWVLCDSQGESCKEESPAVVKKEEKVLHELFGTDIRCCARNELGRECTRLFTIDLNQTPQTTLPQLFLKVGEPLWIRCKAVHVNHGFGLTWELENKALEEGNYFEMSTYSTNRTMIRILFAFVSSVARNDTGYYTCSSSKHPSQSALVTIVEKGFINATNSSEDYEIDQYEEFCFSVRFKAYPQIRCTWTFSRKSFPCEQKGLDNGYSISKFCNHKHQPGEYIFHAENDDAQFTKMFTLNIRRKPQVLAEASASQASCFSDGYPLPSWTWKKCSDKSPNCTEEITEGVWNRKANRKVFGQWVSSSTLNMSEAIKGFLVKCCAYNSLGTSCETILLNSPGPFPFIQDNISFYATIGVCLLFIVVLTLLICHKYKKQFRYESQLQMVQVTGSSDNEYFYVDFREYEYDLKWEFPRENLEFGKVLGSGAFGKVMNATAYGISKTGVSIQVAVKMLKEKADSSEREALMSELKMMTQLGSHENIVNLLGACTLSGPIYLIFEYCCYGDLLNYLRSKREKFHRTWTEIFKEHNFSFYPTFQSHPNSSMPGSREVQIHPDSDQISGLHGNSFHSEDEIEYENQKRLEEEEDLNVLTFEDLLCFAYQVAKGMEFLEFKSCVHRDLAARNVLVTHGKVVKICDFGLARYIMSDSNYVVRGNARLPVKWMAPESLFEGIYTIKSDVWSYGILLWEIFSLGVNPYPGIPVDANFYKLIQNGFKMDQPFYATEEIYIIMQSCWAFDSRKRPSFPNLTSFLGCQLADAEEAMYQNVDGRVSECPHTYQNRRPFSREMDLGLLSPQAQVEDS

[4] = biological target: SRSF protein kinase 2 (Homo sapiens) (UniProt P78362)
[5] = biological target: Bone morphogenetic protein receptor type-1A (Homo sapiens, UniProt P36894); assay: Selectivity interaction (KinomeScan (DiscoverX)) EUB0000655a BMPR1A
Bone morphogenetic protein receptor type-1A, sequence (P36894 whole entry): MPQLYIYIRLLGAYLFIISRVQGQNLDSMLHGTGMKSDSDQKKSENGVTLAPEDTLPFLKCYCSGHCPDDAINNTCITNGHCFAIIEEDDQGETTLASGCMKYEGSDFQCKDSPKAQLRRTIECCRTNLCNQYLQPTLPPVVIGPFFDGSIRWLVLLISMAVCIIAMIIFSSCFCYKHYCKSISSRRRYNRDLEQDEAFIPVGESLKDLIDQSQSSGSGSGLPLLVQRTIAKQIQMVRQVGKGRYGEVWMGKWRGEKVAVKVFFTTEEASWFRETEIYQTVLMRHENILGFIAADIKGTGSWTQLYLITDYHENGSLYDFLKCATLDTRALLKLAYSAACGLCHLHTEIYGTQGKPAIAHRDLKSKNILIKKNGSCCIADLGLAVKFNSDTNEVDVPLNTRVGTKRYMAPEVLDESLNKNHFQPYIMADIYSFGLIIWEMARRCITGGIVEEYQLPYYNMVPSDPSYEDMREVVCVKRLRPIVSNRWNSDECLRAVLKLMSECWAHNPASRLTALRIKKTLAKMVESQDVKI

SRSF protein kinase 2 (Homo sapiens), sequence (P78362 whole entry, looked up): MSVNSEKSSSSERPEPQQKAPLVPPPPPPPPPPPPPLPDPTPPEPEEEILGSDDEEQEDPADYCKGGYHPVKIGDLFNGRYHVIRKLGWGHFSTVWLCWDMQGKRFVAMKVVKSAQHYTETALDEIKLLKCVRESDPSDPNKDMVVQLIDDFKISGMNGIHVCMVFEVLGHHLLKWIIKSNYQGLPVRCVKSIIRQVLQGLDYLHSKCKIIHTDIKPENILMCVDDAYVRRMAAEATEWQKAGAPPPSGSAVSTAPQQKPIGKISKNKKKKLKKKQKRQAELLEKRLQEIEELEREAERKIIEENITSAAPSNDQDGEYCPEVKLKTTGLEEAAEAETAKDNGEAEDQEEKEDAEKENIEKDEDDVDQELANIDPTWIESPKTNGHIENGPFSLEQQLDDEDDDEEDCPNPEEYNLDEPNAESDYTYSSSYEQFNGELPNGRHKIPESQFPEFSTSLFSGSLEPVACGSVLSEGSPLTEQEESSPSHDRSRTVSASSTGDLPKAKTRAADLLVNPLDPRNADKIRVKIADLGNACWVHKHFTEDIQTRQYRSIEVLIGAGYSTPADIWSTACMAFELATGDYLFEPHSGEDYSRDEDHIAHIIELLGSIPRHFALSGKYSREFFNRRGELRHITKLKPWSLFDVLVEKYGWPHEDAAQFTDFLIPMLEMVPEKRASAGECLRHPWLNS

O=C(NOC[C@H](O)CO)c1ccc(F)c(F)c1Nc1ccc(I)cc1F
% of control [1]: 100%

COCC(=O)NC/C=C/c1ccc2ncnc(Nc3ccc(Oc4ccc(C)nc4)c(C)c3)c2c1 [CP-724714]
% of control [2]: 100%

Cc1cc([C@@H](C)Nc2ccccc2C(=O)O)c2nc(N3CCOCC3)cc(=O)n2c1 [AZD-6482]
% of control [3]: 54%
% of control [4]: 85%

CN(C)CCOc1ccc(-c2nc(-c3ccncc3)c(-c3ccc4c(c3)CC/C4=N\O)[nH]2)cc1
% of control [5]: 100%
